Experimental data from paper PMC4568520, “Interrogation of the intersubunit interface of the open Hv1 proton channel with a probe of allosteric coupling” (Scientific Reports, 2015).
Substitutions are numbered along the chain they refer to.

What was measured:
[1] = molecular target: T1, human Hv1 (wild type, dimeric) (Homo sapiens, UniProt Q96D96); test: cell-based; set-up: species or system Xenopus oocytes; patch-clamp proton currents, Hill fit of current inhibition, +120 mV, pHi = pHo = 6.0; conditions: apparent Kd, Hill fit of current inhibition; read-out: Kd (µM) (±SE)
T1 construct: gene HVCN1; full-length human Hv1 homodimer, 273 residues; pGEMHE cRNA in Xenopus laevis oocytes, inside-out patches
T1 sequence (Q96D96 1-273): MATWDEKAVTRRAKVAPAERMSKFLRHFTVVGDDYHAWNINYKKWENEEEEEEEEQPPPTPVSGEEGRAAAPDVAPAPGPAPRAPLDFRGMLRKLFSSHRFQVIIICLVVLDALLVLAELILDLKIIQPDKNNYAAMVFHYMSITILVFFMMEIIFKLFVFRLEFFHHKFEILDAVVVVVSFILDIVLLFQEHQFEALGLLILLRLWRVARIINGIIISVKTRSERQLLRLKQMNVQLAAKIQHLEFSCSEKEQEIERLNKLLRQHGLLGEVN
From the text: Figure 1 Hv1 inhibition by guanidinothiazole derivatives. […] [2] 2-guanidino-benzothiazole (GBTA), [3] (5-trifluoromethyl-1,3-benzothiazol-2-yl)guanidine, [4] naphtho[1,2-d][1,3]thiazol-2-yl-guanidine, [5] (4-methyl-1,3-thiazol-2-yl)guanidine, [6] […] 1-[4-(4-chlorophenyl)-1,3-thiazol-2-yl]guanidine, [12] 1-[4-(3,4-dimethoxyphenyl)-1,3-thiazol-2-yl]guanidine. (b) Inhibition of human Hv1 activity by the indicated guanidinothiazoles and reference compound 2GBI (teal column). Hv1 proton currents were measured in inside out patches from Xenopus oocytes in response to depolarizations to +120 mV from a holding potential of −80 mV. Each inhibitor was added to the bath solution at a concentration of 200 μM. pHi = pHo = 6.0. Data are means ± S.E.M. (n ≥ 4). (c) Concentration dependences of inhibition of human Hv1 by compounds [2], [3], [6], and [11]. […] Apparent dissociation constants (Kd) for the different combinations of channel and inhibitor (Supplementary Table 1) were determined by fitting the concentration dependences of inhibition (average %inhib values) with the Hill equation: Figure 6 Open-state coupling is mediated by direct physical interaction between outer ends of S1 segments in the two subunits. […] Hill coefficients in inset histograms were determined from fits reported in Supplementary Figs 3 and 4. […]

[2] = molecular target: T2, human Hv1 (wild type, dimeric) K125A (Homo sapiens, UniProt Q96D96, K125A); test: cell-based; set-up: species or system Xenopus oocytes; patch-clamp proton currents, Hill fit of current inhibition, +120 mV, pHi = pHo = 6.0; conditions: apparent Kd, Hill fit of current inhibition; read-out: Kd (µM) (±SE)
T2 construct: gene HVCN1; full-length human Hv1 homodimer, 273 residues; pGEMHE cRNA in Xenopus laevis oocytes, inside-out patches
T2 sequence (Q96D96 1-273 K125A): T1 sequence (Q96D96 1-273) with K125A
Protocol: (§1) [2] 2-guanidino-benzothiazole (GBTA), [3] (5-trifluoromethyl-1,3-benzothiazol-2-yl)guanidine, [4] naphtho[1,2-d][1,3]thiazol-2-yl-guanidine, [5] (4-methyl-1,3-thiazol-2-yl)guanidine, [6] […] 1-[4-(4-chlorophenyl)-1,3-thiazol-2-yl]guanidine, [12] 1-[4-(3,4-dimethoxyphenyl)-1,3-thiazol-2-yl]guanidine. […] Hv1 proton currents were measured in inside out patches from Xenopus oocytes in response to depolarizations to +120 mV from a holding potential of −80 mV. Each inhibitor was added to the bath solution at a concentration of 200 μM. pHi = pHo = 6.0. Data are means ± S.E.M. (n ≥ 4). […] (a) Schematics of mutant Hv1 dimers and linked dimers designed to study how intersubunit cysteine crosslinking affects GBTA binding cooperativity. […] Hill coefficients in inset histograms were determined from fits reported in Supplementary Figs 3 and 4.

[3] = molecular target: T3, human Hv1 (wild type, dimeric) D123R (Homo sapiens, UniProt Q96D96, D123R); test: cell-based; set-up: species or system Xenopus oocytes; patch-clamp proton currents, Hill fit of current inhibition, +120 mV, pHi = pHo = 6.0; conditions: apparent Kd, Hill fit of current inhibition; read-out: Kd (µM) (±SE)
T3 construct: gene HVCN1; full-length human Hv1 homodimer, 273 residues; pGEMHE cRNA in Xenopus laevis oocytes, inside-out patches
T3 sequence (Q96D96 1-273 D123R): T1 sequence (Q96D96 1-273) with D123R
Protocol: as §1

D112E I127C+βME = molecular target: T4, D112E I127C+βME (Homo sapiens, UniProt Q96D96, D112E/I127C); test: cell-based; set-up: species or system Xenopus oocytes; patch-clamp proton currents, Hill fit of current inhibition, +120 mV, pHi = pHo = 6.0; conditions: read-out: Kd (µM) (±SE)
T4 construct: gene HVCN1; Hv1 homodimer, cysteines reduced by 10 mM βME
T4 sequence (Q96D96 1-273 D112E/I127C): T1 sequence (Q96D96 1-273) with D112E, I127C
Protocol: as §1

I127C+βME = molecular target: T5, I127C+βME (Homo sapiens, UniProt Q96D96, I127C); test: cell-based; set-up: species or system Xenopus oocytes; patch-clamp proton currents, Hill fit of current inhibition, +120 mV, pHi = pHo = 6.0; conditions: read-out: Kd (µM) (±SE)
T5 construct: gene HVCN1; Hv1 homodimer, cysteines reduced by 10 mM βME
T5 sequence (Q96D96 1-273 I127C): T1 sequence (Q96D96 1-273) with I127C
Protocol: as §1

[4] = molecular target: T6, human Hv1 (wild type, dimeric) E119A (Homo sapiens, UniProt Q96D96, E119A); test: cell-based; set-up: species or system Xenopus oocytes; patch-clamp proton currents, Hill fit of current inhibition, +120 mV, pHi = pHo = 6.0; conditions: apparent Kd, Hill fit of current inhibition; read-out: Kd (µM) (±SE)
T6 construct: gene HVCN1; full-length human Hv1 homodimer, 273 residues; pGEMHE cRNA in Xenopus laevis oocytes, inside-out patches
T6 sequence (Q96D96 1-273 E119A): T1 sequence (Q96D96 1-273) with E119A
Protocol: as §1

[5] = molecular target: T1, human Hv1 (wild type, dimeric); test: inside-out patch clamp, proton current inhibition, Hill fit; type: biochemical; conditions: wild-type dimer; open-channel block at +120 mV; pHi = pHo = 6.0; 22 °C; inhibitor on intracellular side

## N=C(N)Nc1nc2ccccc2s1 [compound 2, 2-guanidino-benzothiazole]
[1]
  Kd: 90 ± 7 µM
[2]
  Kd: 86 ± 6 µM
[3]
  Kd: 35.8 ± 2.4 µM
D112E I127C+βME
  Kd: 191 ± 11 µM
I127C+βME
  Kd: 44.3 ± 2.5 µM
[4]
  Kd: 40.5 ± 2.9 µM

## NC(N)=Nc1nc2ccccc2[nH]1 [compound 1, 2-Guanidino-benzimidazole]
[5]
  apparent Kd: inhibition of dimeric and monomeric Hv1 by compounds 2GBI and GBTA
